Data from ChEMBL document CHEMBL1201862, “PubChem BioAssay data set” (2004).
The source made the active and inactive calls.

Tests used:
[1] = molecular target: FAD-linked sulfhydryl oxidase ALR (Homo sapiens, UniProt P55789); experiment: ALR-catalysed DTT oxidation blockers – biochemical, H2O2 detection, luminescence, cherry-pick, dose response (AID 493248)
[2] = molecular target: T1, Polyadenylate-binding protein 1 (Homo sapiens, UniProt P11940); experiment: MLLE domain peptide-binding blockers, IC50 – biochemical, fluorescence polarization, FITC-PAM2 peptide, dose response (AID 602259); format: functional; conditions: read-out: IC50_Mean
T1 sequence (P11940 whole entry, the tested form may be a part): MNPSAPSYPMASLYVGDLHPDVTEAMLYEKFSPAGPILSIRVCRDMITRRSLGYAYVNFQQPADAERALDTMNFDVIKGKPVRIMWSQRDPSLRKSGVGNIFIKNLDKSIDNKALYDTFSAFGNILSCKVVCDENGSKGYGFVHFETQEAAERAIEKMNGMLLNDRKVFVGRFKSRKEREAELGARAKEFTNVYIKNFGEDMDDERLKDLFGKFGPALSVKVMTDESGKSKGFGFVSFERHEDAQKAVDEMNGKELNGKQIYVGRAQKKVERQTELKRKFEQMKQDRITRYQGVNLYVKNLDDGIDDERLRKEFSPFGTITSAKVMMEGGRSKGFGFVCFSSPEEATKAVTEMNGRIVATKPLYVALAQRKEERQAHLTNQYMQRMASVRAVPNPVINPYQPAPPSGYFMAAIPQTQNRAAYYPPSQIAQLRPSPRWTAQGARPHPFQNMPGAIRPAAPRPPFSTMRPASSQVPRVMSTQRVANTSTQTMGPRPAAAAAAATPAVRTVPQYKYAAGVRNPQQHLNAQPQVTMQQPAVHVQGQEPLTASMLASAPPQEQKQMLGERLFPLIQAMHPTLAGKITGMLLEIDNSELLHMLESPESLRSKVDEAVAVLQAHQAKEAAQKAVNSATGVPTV

[3] = molecular target: T1, Polyadenylate-binding protein 1; experiment: MLLE binding blockers, Cy5 peptide tracer – biochemical, fluorescence polarization, Cy5-PAM2 peptide, secondary, miRNA deadenylation inhibitor project, dose response (AID 602260); format: functional; conditions: read-out: IC50_Mean
[4] = molecular target: T2, Calpain-2 catalytic subunit (Sus scrofa, UniProt P43367); experiment: m-calpain protease blockers, concentration series – biochemical, fluorogenic peptide substrate, dose response (AID 1420); format: functional
T2 sequence (P43367 whole entry): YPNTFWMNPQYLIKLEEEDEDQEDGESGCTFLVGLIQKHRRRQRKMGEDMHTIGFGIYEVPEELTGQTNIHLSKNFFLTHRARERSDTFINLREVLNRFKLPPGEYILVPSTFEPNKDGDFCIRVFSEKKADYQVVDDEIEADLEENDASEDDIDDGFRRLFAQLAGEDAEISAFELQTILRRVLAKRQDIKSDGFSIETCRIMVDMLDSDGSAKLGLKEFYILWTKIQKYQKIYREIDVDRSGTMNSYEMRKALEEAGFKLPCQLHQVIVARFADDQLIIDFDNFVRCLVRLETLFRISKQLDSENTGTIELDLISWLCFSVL

[5] = molecular target: T3, Corticotropin-releasing factor receptor 2/Corticotropin-releasing factor-binding protein (Homo sapiens, UniProt P24387+Q13324); experiment: Dose Response confirmation of uHTS hits for small molecule antagonists of the CRF-binding protein and CRF-R2 receptor complex.; format: functional; conditions: read-out: IC50_Mean
T3 sequence (Q13324 whole entry): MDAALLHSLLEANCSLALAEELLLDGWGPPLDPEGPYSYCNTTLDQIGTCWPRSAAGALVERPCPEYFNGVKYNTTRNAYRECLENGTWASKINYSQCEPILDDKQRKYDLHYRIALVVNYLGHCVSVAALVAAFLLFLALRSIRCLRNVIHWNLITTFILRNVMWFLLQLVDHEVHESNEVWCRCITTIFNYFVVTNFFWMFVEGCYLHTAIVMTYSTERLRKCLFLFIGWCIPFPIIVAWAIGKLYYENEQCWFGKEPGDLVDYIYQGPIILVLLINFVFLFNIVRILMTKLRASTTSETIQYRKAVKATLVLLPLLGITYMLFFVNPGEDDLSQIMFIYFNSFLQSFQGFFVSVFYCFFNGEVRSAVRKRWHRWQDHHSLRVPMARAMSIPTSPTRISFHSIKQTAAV
T3 sequence (P24387 whole entry): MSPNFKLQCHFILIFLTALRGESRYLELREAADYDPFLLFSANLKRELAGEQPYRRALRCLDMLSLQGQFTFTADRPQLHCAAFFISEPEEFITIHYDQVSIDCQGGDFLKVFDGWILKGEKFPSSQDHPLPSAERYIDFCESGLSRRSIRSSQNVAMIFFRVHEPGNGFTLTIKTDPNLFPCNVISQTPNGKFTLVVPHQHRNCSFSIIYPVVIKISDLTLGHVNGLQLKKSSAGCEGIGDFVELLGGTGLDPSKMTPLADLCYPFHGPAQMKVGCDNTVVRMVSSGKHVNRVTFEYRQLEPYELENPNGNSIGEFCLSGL

[6] = molecular target: T3, Corticotropin-releasing factor receptor 2/Corticotropin-releasing factor-binding protein; experiment: activators of CRF receptor 2 with binding protein – uHTS hits, confirmation (AID 602473); format: functional; conditions: read-out: EC50_Mean
[7] = molecular target: T4, High affinity choline transporter 1 (Homo sapiens, UniProt Q9GZV3); experiment: human choline transporter blockers, potency – cell-based, 5-point CRC, membrane potential dye, dose response (AID 504840); format: functional
T4 sequence (Q9GZV3 whole entry): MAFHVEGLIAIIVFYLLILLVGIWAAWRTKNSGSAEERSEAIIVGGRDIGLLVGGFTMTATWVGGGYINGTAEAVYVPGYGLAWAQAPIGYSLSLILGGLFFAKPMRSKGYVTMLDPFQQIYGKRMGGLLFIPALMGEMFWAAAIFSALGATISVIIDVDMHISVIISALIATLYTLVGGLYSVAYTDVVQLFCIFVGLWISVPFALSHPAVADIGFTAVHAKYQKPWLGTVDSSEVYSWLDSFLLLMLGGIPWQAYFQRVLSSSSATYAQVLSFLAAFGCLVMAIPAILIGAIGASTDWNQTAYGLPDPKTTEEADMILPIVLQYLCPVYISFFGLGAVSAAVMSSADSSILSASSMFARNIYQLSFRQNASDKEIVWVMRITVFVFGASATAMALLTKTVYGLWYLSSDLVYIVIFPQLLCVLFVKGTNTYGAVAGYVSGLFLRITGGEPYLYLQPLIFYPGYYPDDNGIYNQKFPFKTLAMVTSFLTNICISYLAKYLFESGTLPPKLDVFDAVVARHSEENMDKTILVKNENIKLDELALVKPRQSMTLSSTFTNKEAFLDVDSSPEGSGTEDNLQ

P388 = experiment: cells; format: functional; conditions: Mus musculus
SN12K1 = experiment: cells; format: functional; conditions: Homo sapiens
P388/ADR = experiment: cells; format: functional; conditions: Mus musculus
[8] = molecular target: T5, Rac GTPase-activating protein 1 (Homo sapiens, UniProt Q9H0H5); experiment: blockers of MgcRacGAP-driven Rac1 GTP hydrolysis – biochemical, ADP Hunter fluorescence, primary and confirmatory, confirmation (AID 624330); format: functional
T5 sequence (Q9H0H5 whole entry): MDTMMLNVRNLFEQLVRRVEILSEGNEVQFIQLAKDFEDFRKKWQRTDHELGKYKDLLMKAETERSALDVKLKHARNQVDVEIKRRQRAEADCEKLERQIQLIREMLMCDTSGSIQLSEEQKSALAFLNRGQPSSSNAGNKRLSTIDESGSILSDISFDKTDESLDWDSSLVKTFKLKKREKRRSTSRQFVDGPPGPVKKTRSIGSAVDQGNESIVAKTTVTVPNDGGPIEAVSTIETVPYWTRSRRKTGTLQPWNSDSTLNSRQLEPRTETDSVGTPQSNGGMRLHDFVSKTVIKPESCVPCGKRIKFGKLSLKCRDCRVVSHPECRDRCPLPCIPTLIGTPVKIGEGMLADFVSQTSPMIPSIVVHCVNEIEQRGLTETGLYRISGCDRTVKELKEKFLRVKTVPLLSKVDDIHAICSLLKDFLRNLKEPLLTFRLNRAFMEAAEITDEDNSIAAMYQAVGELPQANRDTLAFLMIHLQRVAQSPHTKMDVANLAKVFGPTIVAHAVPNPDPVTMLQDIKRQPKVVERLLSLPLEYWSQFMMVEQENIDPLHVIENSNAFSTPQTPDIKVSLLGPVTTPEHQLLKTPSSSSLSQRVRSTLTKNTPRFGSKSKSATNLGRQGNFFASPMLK

[9] = intracellular Trypanosoma cruzi inhibitors in host cells – cell-based, plate reader, cherry-pick samples, set 3, dose response (AID 651818); format: functional;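 note: compounds incubated with infected cells for about four days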

Chain of FAD-linked sulfhydryl oxidase ALR (P55789 whole entry, the tested form may be a part): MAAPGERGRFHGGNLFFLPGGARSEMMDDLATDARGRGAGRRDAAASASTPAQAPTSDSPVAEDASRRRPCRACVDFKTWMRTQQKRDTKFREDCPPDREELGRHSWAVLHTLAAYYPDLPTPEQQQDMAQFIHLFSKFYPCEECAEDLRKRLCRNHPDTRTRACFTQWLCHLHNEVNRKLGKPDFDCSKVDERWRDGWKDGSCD

SMILES: Cc1cc(N2CCN(c3ccccc3)CC2)nc(N)n1
- AC50 [1]: 4.38 µM (active)

SMILES: COC(=O)c1ccc2c(=O)sc(N3CCC(C(N)=O)CC3)nc2c1
- IC50 [2]: 52.6 µM (inactive)
- IC50 [3]: > 66 µM (inactive)

SMILES: CCCN(CCC)C(=S)NC(=O)c1ccc(-c2ccccc2)cc1
- IC50 [2]: > 66 µM (inactive)
- IC50 [4]: 36.7 µM (not active)
- IC50 [3]: > 66 µM (inactive)

SMILES: O=C(NCc1cccnc1)c1ccc2c(c1)N(Cc1ccccc1)CCS2
- AC50 [1]: 3.31 µM (active)

SMILES: CC1CCN(C(=S)c2ccc([N+](=O)[O-])cc2)CC1
- IC50 [2]: > 66 µM (inactive)
- IC50 [3]: > 66 µM (inactive)

SMILES: Cc1cccc(C)c1NC(=S)Nc1ccc(F)cc1
- IC50 [2]: > 66 µM (inactive)
- IC50 [5]: > 47.1 µM (inactive)
- EC50 [6]: > 53 µM (inactive)
- IC50 [3]: > 66 µM (inactive)

SMILES: Fc1ccc(-c2ccnc(S)n2)cc1
- AC50 [1]: 0.301 µM (active)
- IC50 [2]: > 66 µM (inactive)
- IC50 [3]: > 66 µM (inactive)

SMILES: CC(=O)NNc1nc(-c2ccc(NC(C)=O)cc2)cs1
- AC50 [1]: 0.58 µM (active)

SMILES: Cc1ccc(S(=O)(=O)N2[C@@H](c3ccc(Cl)cc3)C(C(=O)O)=CC[C@H]2c2ccc(Cl)c(Cl)c2)cc1
- AC50 [1]: 6.86 µM (active)
- IC50 [7]: 0.794 µM (active)

SMILES: O=C1N=C2SCCN2/C1=C\c1ccccc1Cl
- IC50 [2]: > 66 µM (inactive)
- IC50 [3]: > 66 µM (inactive)

SMILES: c1ccc2c3c(ccc2c1)-c1[nH]ncc1CCO3
- GI50 (P388): 26.1 µM (inactive)
- GI50 (SN12K1): 22.4 µM (inactive)
- GI50 (P388/ADR): 26.9 µM (inactive)

SMILES: C=C1C(C)C2C(Cc3ccccc3)NC(=O)C23C(OC(C)=O)C=CC(C)(O)C(=O)C(C)C/C=C/C3C1O (centres undefined)
- GI50 (P388): 0.454 µM (active)
- GI50 (SN12K1): 0.0619 µM (active)
- GI50 (P388/ADR): 14.4 µM (inactive)

SMILES: COc1cc(/C=N/n2c(S)nnc2C2CCCCC2)ccc1O
- AC50 [1]: 2.3 µM (active)
- IC50 [8]: 47.9 µM (active)

SMILES: COc1ccc(Cc2nn(C3OC(COC(C)=O)C(OC(C)=O)C(OC(C)=O)C3OC(C)=O)c(=S)n(-c3ccc(OC)cc3)c2=O)cc1 (centres undefined)
- GI50 (P388): > 100 µM (inactive)
- GI50 (SN12K1): > 100 µM (inactive)
- GI50 (P388/ADR): > 100 µM (inactive)

SMILES: O=C1C(Br)=CC2([N+](=O)[O-])CCNC3=C(C4=NCCc5c[nH]c(c54)C3=O)C2=C1Br (centres undefined)
- GI50 (P388): 0.317 µM (active)
- GI50 (SN12K1): 3.3 µM (inactive)
- GI50 (P388/ADR): 0.579 µM (active)

SMILES: Cc1c2cnccc2c(C)c2c1c1ccccc1n2CC1CO1 (centres undefined)
- GI50 (P388): 0.0291 µM (active)
- GI50 (SN12K1): 0.719 µM (active)
- GI50 (P388/ADR): 0.065 µM (active)

SMILES: C[C@H](CO)N1C[C@H](C)[C@@H](CN(C)Cc2ccc(C(=O)Nc3ccccc3N)cc2)Oc2c(NS(=O)(=O)c3ccccc3)cccc2C1=O
- AC50 [9]: 4.71 µM (active)

SMILES: Cc1noc(C)c1S(=O)(=O)Nc1cccc2c1O[C@H](CN(C)Cc1ccc(C(=O)Nc3ccccc3N)cc1)[C@H](C)CN([C@@H](C)CO)C2=O
- AC50 [9]: 2.03 µM (active)

SMILES: C[C@H]1CN([C@@H](C)CO)C(=O)c2cccc(NC(=O)CCCCCC(=O)Nc3ccccc3N)c2O[C@H]1CN(C)Cc1ccc(Cl)c(Cl)c1
- AC50 [9]: 3.18 µM (active)

SMILES: C[C@@H]1CN([C@@H](C)CO)C(=O)c2cccc(NC(=O)CCCCCC(=O)Nc3ccccc3N)c2O[C@H]1CN(C)Cc1ccccc1
- AC50 [9]: 2.43 µM (active)

SMILES: C[C@@H]1CCCCO[C@H](CN(C)C(=O)Nc2ccc(C(F)(F)F)cc2)[C@@H](C)CN([C@H](C)CO)C(=O)c2cc(NS(=O)(=O)c3ccc(Cl)cc3)ccc2O1
- AC50 [9]: 4.76 µM (active)

SMILES: C[C@@H]1CN([C@@H](C)CO)C(=O)c2cccc(NC(=O)Nc3ccc4c(c3)OCO4)c2O[C@@H]1CN(C)Cc1ccc(Oc2ccccc2)cc1
- AC50 [9]: 3.77 µM (active)

SMILES: C[C@H](CO)N1C[C@H](C)[C@H](CN(C)Cc2ccc(C(=O)Nc3ccccc3N)cc2)Oc2c(NC(=O)Nc3ccc(F)cc3)cccc2C1=O
- AC50 [9]: 1.06 µM (active)

SMILES: C[C@H](CO)N1C[C@H](C)[C@H](CN(C)S(=O)(=O)c2ccc(F)cc2)Oc2ccc(NC(=O)Nc3ccc(C(F)(F)F)cc3)cc2CC1=O
- AC50 [9]: 2.56 µM (active)

SMILES: COC(=O)c1cccc(N[C@@H]2c3cc4c(cc3C(c3cc(OC)c(O)c(OC)c3)[C@H]3C(=O)OCC32)OCO4)c1 (some centres undefined)
- GI50 (P388): 0.0103 µM (active)
- GI50 (SN12K1): 0.23 µM (active)
- GI50 (P388/ADR): 0.271 µM (active)

SMILES: O=C1CC(=O)N(c2ccccc2)N1c1ccccc1
- AC50 [1]: 4.37 µM (active)

SMILES: CC(C)[C@](O)(C(=O)OCC1=CCN2CC[C@@H](O)[C@@H]12)[C@H](C)O
- GI50 (P388): > 375 µM (inactive)
- GI50 (SN12K1): > 375 µM (inactive)
- GI50 (P388/ADR): > 375 µM (inactive)

SMILES: O=C1NC(=O)C2C3C=CC(C12)C1C2C(=O)NC(=O)C2C31 (centres undefined)
- GI50 (P388): 21 µM (inactive)
- GI50 (SN12K1): 85.3 µM (inactive)
- GI50 (P388/ADR): 122 µM (inactive)

SMILES: CCOC(=O)NC1=C(N2CC2)C(=O)C(NC(=O)OCC)=C(N2CC2)C1=O [DIAZIQUONE]
- GI50 (P388): 1.77 µM (inactive)
- GI50 (SN12K1): 2.94 µM (inactive)
- GI50 (P388/ADR): 2.72 µM (inactive)
